Laboratory results as given in patent US9255094B2, “Pyrido[4,3-B]indoles and methods of use” (Medivation Technologies, Inc., priority 2009, dated 2016).

Legend:
[1] = target: T1, rat adrenergic α1A receptor (Rattus norvegicus, UniProt P43140); assay: Adrenergic α1A radioligand binding assay ([3H]Prozosin); settings: compound at 0.1 μM; 0.25 nM [3H]Prozosin; Wistar Rat submaxillary glands; read-out: Percent Inhibition of ligand binding, Adrenergic (0.1 μM) a1A
T1 construct: from tissue; host or cells: Wistar Rat submaxillary glands
T1 sequence (P43140 1-466): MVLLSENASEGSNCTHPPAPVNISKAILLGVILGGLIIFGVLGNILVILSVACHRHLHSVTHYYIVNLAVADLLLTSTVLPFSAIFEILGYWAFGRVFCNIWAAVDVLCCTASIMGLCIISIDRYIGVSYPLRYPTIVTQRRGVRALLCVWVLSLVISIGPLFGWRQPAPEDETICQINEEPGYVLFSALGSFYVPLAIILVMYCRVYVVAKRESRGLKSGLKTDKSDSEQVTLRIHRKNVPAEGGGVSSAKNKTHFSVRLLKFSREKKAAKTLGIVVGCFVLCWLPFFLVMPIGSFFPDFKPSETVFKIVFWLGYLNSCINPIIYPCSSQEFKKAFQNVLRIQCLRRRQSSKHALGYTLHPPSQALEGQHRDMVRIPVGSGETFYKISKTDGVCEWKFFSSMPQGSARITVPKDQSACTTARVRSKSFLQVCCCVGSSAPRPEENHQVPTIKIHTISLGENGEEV
Description: To evaluate in radioligand binding assays the activity of compounds of the invention, rat adrenergic α1A receptor obtained from Wistar Rat submaxillary glands (Michel, A. D. et al., Br. J. Pharmacol. 98:883, 1989) in a modified Tris-HCl buffer (50 mM Tris-HCl buffer, pH 7.4, 0.5 mM EDTA) is used. Compounds of the invention are incubated with 0.25 nM [^3H]Prozosin for 60 min at 25° C. Non-specific binding is estimated in the presence of 10 μM phentolamine. Receptor proteins are filtered and washed, the filters are then counted to determine [^3H]Prozosin specifically bound. Compounds of the invention are screened at 1 μM or lower, using 1% DMSO as vehicle. Compounds of the invention are tested in this biochemical assay and percent inhibition of specific binding is determined.

[2] = target: T2, human recombinant serotonin (5-Hydroxytryptamine) 5-HT2A receptor (Homo sapiens, UniProt P28223); assay: Serotonin 5-HT2A radioligand binding assay ([3H]Ketanserin); settings: 0.5 nM [3H]Ketanserin, CHO-K1 cells; for inhibition at 1 µM: compound at 1 μM, read-out: Percent Inhibition of ligand binding, Serotonin (1 μM) 5-HT2A; for inhibition at 0.1 µM: compound at 0.1 μM, read-out: Percent Inhibition of ligand binding, Serotonin (0.1 μM) 5-HT2A
T2 construct: expressed in transfected cells; host or cells: Chinese hamster ovary (CHO-K1) cells
T2 sequence (P28223 whole entry): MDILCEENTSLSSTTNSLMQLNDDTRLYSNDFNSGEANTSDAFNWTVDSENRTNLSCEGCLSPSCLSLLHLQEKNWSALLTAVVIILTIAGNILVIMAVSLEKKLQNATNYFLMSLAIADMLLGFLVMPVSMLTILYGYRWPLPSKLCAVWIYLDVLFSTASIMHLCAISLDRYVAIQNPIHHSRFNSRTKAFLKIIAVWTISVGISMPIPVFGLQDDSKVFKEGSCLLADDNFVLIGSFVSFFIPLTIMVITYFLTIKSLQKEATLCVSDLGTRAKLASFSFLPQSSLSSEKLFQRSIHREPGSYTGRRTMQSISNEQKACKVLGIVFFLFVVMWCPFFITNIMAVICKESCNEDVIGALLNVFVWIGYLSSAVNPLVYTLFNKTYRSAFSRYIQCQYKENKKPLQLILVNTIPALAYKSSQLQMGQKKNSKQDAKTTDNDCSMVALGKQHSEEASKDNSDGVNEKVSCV
Description: Compounds of the invention were incubated with 0.5 nM [^3H]Ketanserin for 60 min at 25° C. Non-specific binding was estimated in the presence of 1 μM Mianserin. Receptor proteins were filtered and washed, the filters were then counted to determine [^3H]Ketanserin specifically bound. Compounds were screened at 1 μM or lower, using 1% DMSO as vehicle. Biochemical assay results are presented as the percent inhibition of specific binding in Table 4.

[3] = target: T3, human recombinant adrenergic α2B receptor (Homo sapiens, UniProt P18089); assay: Adrenergic α2B radioligand binding assay ([3H]Rauwolscine); settings: compound at 0.1 μM; 2.5 nM [3H]Rauwolscine; CHO-K1 cells; read-out: Percent Inhibition of ligand binding, Adrenergic (0.1 μM) a2B
T3 construct: expressed in transfected cells; host or cells: Chinese hamster ovary (CHO-K1) cells
T3 sequence (P18089 1-450): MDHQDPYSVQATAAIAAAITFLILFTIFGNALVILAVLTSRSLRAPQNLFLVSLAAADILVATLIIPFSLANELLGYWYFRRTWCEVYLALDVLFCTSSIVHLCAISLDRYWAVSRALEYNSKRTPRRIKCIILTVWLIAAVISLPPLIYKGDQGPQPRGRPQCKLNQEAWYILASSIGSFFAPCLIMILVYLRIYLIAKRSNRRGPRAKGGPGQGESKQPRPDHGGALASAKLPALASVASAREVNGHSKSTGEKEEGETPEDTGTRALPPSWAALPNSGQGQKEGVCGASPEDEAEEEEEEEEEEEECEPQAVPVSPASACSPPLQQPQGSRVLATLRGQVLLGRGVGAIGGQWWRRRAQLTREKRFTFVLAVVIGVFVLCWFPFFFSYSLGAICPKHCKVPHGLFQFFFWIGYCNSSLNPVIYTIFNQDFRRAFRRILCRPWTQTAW
Description: To evaluate in radioligand binding assays the activity of compounds of the invention, human recombinant adrenergic α2B receptor expressed in Chinese hamster ovary (CHO-K1) cells (Uhlen S et al., Eur. J. Pharmacol. 343(1):93, 1998) in a modified Tris-HCl buffer (50 mM Tris-HCl, pH 7.4, 12.5 mM MgCl2, 1 mM EDTA, 0.2% BSA) was used. Compounds of the invention were incubated with 2.5 nM [^3H]Rauwolscine for 60 min at 25° C. Non-specific binding was estimated in the presence of 10 μM Prozosin. Receptor proteins were filtered and washed, the filters were then counted to determine [^3H]Rauwolscine specifically bound.

[4] = target: human recombinant serotonin (5-Hydroxytryptamine) 5-HT7 receptor (Homo sapiens, UniProt P34969); assay: Serotonin 5-HT7 radioligand binding assay ([3H]LSD); settings: compound at 0.1 μM; 5.5 nM [3H]LSD; CHO cells; read-out: Percent Inhibition of ligand binding, Serotonin (0.1 μM) 5-HT7
Chain of human recombinant serotonin (5-Hydroxytryptamine) 5-HT7 receptor (P34969 whole entry): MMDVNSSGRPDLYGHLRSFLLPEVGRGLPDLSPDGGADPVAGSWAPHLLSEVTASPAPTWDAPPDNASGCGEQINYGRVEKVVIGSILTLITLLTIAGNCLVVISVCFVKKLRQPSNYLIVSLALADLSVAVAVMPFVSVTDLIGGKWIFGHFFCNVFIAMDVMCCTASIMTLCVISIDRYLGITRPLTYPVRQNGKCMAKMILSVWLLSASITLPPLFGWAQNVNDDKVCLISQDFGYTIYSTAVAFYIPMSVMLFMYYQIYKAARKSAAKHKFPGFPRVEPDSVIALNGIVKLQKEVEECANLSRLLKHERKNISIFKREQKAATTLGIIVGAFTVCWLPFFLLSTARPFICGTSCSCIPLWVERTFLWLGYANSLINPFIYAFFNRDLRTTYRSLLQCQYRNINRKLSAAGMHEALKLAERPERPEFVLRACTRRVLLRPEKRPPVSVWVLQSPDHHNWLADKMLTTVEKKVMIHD
Description: Compounds of invention were incubated with 5.5 nM [^3H] Lysergic acid diethylamide (LSD) for 2 h at 25° C. […] Receptor proteins were filtered and washed, the filters were then counted to determine [^3H]LSD specifically bound. Compounds were screened at 1 μM or lower, using 1% DMSO as vehicle. Biochemical assay results are presented as the percent inhibition of specific binding in Table 4.

| SMILES | inhibition at 0.1 µM [1] [%] | inhibition at 1 µM [2] [%] | inhibition at 0.1 µM [3] [%] | inhibition at 0.1 µM [2] [%] | inhibition at 0.1 µM [4] [%] |
| --- | --- | --- | --- | --- | --- |
| Cc1ccc2c(c1)c1c(n2CC(O)c2ccncc2)CCN(C)C1 (stereo not drawn) [Compound 1-8, 2-(2,8-dimethyl-3,4-dihydro-1H-pyrido[4,3-b]indol-5(2H)-yl)-1-(pyridin-4-yl)ethanol] | 9 | 86 |  |  |  |
| CN1CCc2c(c3cc(Cl)ccc3n2CC(O)c2ccncc2)C1 (stereo not drawn) [Compound 1-11, 2-(8-chloro-2-methyl-3,4-dihydro-1H-pyrido[4,3-b]indol-5(2H)-yl)-1-(pyridin-4-yl)ethanol] | 12 | 82 |  |  |  |
| Cc1ccc2c(c1)c1c(n2CC(C)(O)c2ccc(O)cc2)CCN(C)C1 (stereo not drawn) [Compound 1-15, 4-(1-(2,8-dimethyl-3,4-dihydro-1H-pyrido[4,3-b]indol-5(2H)-yl)-2-hydroxypropan-2-yl)phenol] | 36 | 102 | 103 |  |  |
| CN1CCc2c(c3cc(Cl)c(Cl)cc3n2CC(C)(O)c2ccncc2)C1 (stereo not drawn) [Compound 1-17, 1-(7,8-dichloro-2-methyl-3,4-dihydro-1H-pyrido[4,3-b]indol-5(2H)-yl)-2-(pyridin-4-yl)propan-2-ol] | 0 | 96 | 64 |  |  |
| COc1ccc([C@](C)(O)Cn2c3c(c4cc(C)ccc42)CN(C)CC3)cc1 [Compound 1-20, (S)-1-(2,8-Dimethyl-3,4-dihydro-1H-pyrido[4,3-b]indol-5(2H)-yl)-2-(4-methoxyphenyl)propan-2-ol] | 13 |  | 79 | 91 |  |
| Cc1ccc2c(c1)c1c(n2CC(C)c2ccncc2)CCN(C)C1 (stereo not drawn) [Compound 1-46, 2,8-dimethyl-5-(2-(pyridin-4-yl)propyl)-2,3,4,5-tetrahydro-1H-pyrido[4,3-b]indole] | 12 |  |  | 71 | 93 |
| Cc1ccc2c(c1)c1c(n2CC(C)(C)c2ccncc2)CCN(C)C1 [Compound 1-49, 2,8-dimethyl-5-(2-methyl-2-(pyridin-4-yl)propyl)-2,3,4,5-tetrahydro-1H-pyrido[4,3-b]indole] | 13 |  |  | 78 | 95 |
| CC[C@](O)(Cn1c2c(c3cc(C)ccc31)CN(C)CC2)c1ccc(F)cc1 [Compound 1-60, (R)-1-(2,8-Dimethyl-3,4-dihydro-1H-pyrido[4,3-b]indol-5(2H)-yl)-2-(4-fluorophenyl)butan-2-ol] | -8 |  | 1 | 67 | 16 |
| CCCC[C@](O)(Cn1c2c(c3cc(Cl)ccc31)CN(C)CC2)c1ccc(F)cc1 [Compound 1-61, (R)-1-(8-Chloro-2-methyl-3,4-dihydro-1H-pyrido[4,3-b]indol-5(2H)-yl)-2-(4-fluorophenyl)hexan-2-ol] | 1 |  | 2 | 81 | -12 |
| CC[C@@](O)(Cn1c2c(c3cc(C)ccc31)CN(C)CC2)c1ccncc1 [Compound 1-62, (S)-1-(2,8-Dimethyl-3,4-dihydro-1H-pyrido[4,3-b]indol-5(2H)-yl)-2-(pyridine-4-yl)butan-2-ol] | 10 |  |  | 43 | 30 |
| CC[C@](O)(Cn1c2c(c3cc(C)ccc31)CN(C)CC2)c1ccncc1 [Compound 1-63, (R)-1-(2,8-Dimethyl-3,4-dihydro-1H-pyrido[4,3-b]indol-5(2H)-yl)-2-(pyridine-4-yl)butan-2-ol] | 8 |  | 47 | 21 | 25 |
| Cc1ccc2c(c1)c1c(n2CCc2ccc(C)nc2)CCN(CC(F)(F)F)C1 [Compound 1-65, 8-methyl-5-(2-(6-methylpyridin-3-yl)ethyl)-2-(2,2,2-trifluoroethyl)-2,3,4,5-tetrahydro-1H-pyrido[4,3-b]indole] | -10 |  | -9 | -10 | -15 |
| CC[C@@](O)(Cn1c2c(c3cc(C)ccc31)CN(C)CC2)c1ccc(F)cc1 [Compound 1-66, (S)-1-(2,8-dimethyl-3,4-dihydro-1H-pyrido[4,3-b]indol-5(2H)-yl)-2-(4-fluorophenyl)butan-2-ol] | -1 |  |  | 77 | 19 |
| CCCC[C@@](O)(Cn1c2c(c3cc(Cl)ccc31)CN(C)CC2)c1ccc(F)cc1 [Compound 1-67, (S)-1-(8-chloro-2-methyl-3,4-dihydro-1H-pyrido[4,3-b]indol-5(2H)-yl)-2-(4-fluorophenyl)hexan-2-ol] | 2 |  | -3 | 39 | -8 |
